Biological target: T1, HIV protease (Human immunodeficiency virus type 1 group M subtype B, UniProt P04585)
T1 construct: and purified protease
Test: HIV Protease Assay
Assay type: biochemical
Settings: 4% DMSO, 450 μM substrate, pH 5.5, 30 minutes at 37° C., RP-HPLC; for inhibition at 10 µM: pH 5.5, 10 μM inhibitor, read-out: HIV Protease % Inhibition at 10 μM; for HIV Protease % Inhibition at 10 μM: 10 μM inhibitor
In short: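 At a single final concentration of 10 μM (4% DMSO), inhibitors were added to a 30-minute, 37° C reaction of purified enzyme with 450 μM H2N-Val-Ser-Gln-Asn-(β-naphthyl-alanine)-Pro-Val-Ile-OH at pH 5.5 (sodium acetate, BSA). Hydrolysis was quantified by reverse-phase HPLC with 220 nm detection after acid quench.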

| Compound | inhibition at 10 µM [%] | HIV Protease % Inhibition at 10 μM [%] |
| --- | --- | --- |
| CC(C)(C)OC(=O)N[C@@H](Cc1ccccc1)[C@H](O)CNC[C@@H](O)[C@H](Cc1ccccc1)NC(=O)c1ccc2ccccc2n1 [Compound 65, [1S-[1R*,2S*(2S*,3R*)]]-[2-Hydroxy-3-[[2-hydroxy-4-phenyl-3-[(2-quinolinylcarbonyl)-amino]butyl]amino]-1-(phenylmethyl)propyl]carbamic acid, 1,1-dimethylethyl ester] | 11 | – |
| CC(C)(C)OC(=O)N[C@@H](Cc1ccccc1)[C@H](O)CNC[C@@H](O)[C@H](Cc1ccccc1)NS(=O)(=O)C(C)(C)C [Compound 183, [1S-[1R*,2S*(2S*,3R*)]]-[3-[[3-[[(2,2-Dimethylethyl)sulfonyl]amino]-2-hydroxy-4-phenylbutyl]amino]-2-hydroxy-1-(phenylmethyl)proyl]carbamic acid, 1,1-dimethylethyl ester] | 35 | – |
| CC(C)(C)OC(=O)N[C@@H](Cc1ccccc1)[C@H](O)CNCC(C)(O)[C@H](Cc1ccccc1)NC(=O)OC(C)(C)C (stereo partly drawn) [Compound 192, [1S-[1R*,2S*(3R*)]]-[3-[[3-[[(1,1-Dimethylethoxy)carbonyl]amino]-2-hydroxy-2-methyl-4-phenylbutyl]amino]-2-hydroxy-1-(phenylmethyl)propyl]amino]carbamic acid, 1,1-dimethylethyl ester] | 85 | – |
| CC(C)(C)OC(=O)N[C@@H](Cc1ccccc1)[C@H](O)CNC[C@@H](O)[C@H](Cc1ccccc1)NC(=O)C1c2ccccc2CN1C=O (stereo partly drawn) [Compound 270, [1S-[1R*,2S*(2S*,3R*)]]-[3-[[3-[[(2-Formyl-2,3-dihydro-1H-isoindol-1-yl)carbonyl]amino]-2-hydroxy-4-phenylbutyl]amino]-2-hydroxy-1-(phenylmethyl)-propyl]carbamic acid 1,1-dimethylethyl ester] | 27 | – |
| CC(C)(C)OC(=O)N[C@@H](Cc1ccccc1)[C@H](O)CNC[C@@H](O)[C@H](Cc1ccccc1)NC(=O)OCc1nc(-c2ccccc2)c[nH]1 [Compound 253, [R-(R*,S*)]-[Iminobis[2-hydroxy-1-(phenylmethyl)-3,1-propanediyl)]biscarbamic acid, 1,1-dimethylethyl(4-phenyl-1H-imidazol-2-yl)methyl ester] | 85 | – |
| CC(C)[C@@H](NC(=O)NCc1nc2ccccc2[nH]1)C(=O)N[C@@H](Cc1ccccc1)[C@H](O)CNC[C@@H](O)[C@H](Cc1ccccc1)NC(=O)OC(C)(C)C (relative stereo) [Compound 274, [1S*,2R*(2R*,3S*)]-N^2-[[(1H-Benzimidazol-2-ylmethyl)amino]carbonyl]-N-[3-[[3-[[(1,1-dimethylethoxy)carbonyl]amino]-2-hydroxy-4-phenylbutyl]amino]-2-hydroxy-1-(phenylmethyl)propyl]-D-valinamide] | 99 | – |
| CC(C)(C)OC(=O)N[C@@H](Cc1ccccc1)[C@H](O)CNC[C@@H](O)[C@H](Cc1ccc(OCCN2CCOCC2=O)cc1)NC(=O)OC(C)(C)C [Compound 380, [1S-[1R*, 2S*(2S*, 3R*)]]-[3-[[3-[[(1,1-Dimethylethoxy)carbonyl]amino]-2-hydroxy-4-[4-[2-(3-oxo-4-morpholinyl)ethoxy]phenyl]-butyl]amino]-2-hydroxy-1-(phenylmethyl)propyl]-carbamic acid, 1,1-dimethylethyl ester] | 97 | – |
| CC(C)(C)OC(=O)N[C@@H](Cc1ccccc1)[C@H](O)CNC[C@@H](O)[C@H](Cc1ccccc1)NC(=O)C(C)(O)c1ccccn1 (single isomer, unassigned; isomer b) [Compound 382, [1S-[1R*,2S*(2S*, 3R*)]]-[2-Hydroxy-3-[[2-hydroxy-3-[[2-hydroxy-1-oxo-2-(2-pyridinyl)propyl]amino]-4-phenylbutyl]amino]-1-(phenylmethyl)propyl]carbamic acid, 1.1-dimethylethyl ester, isomer B] | – | 89 |
| CC(C)(C)OC(=O)N[C@@H](Cc1ccccc1)[C@H](O)CNC[C@H](O)[C@@H](Cc1ccccc1)NC(=O)OC(C)(C)C [Compound 26ii, [1R-[1R*,2S*(2R*,3S*)]]-3-[[3-[[(1,1-Dimethylethoxy)carbonyl]amino]-2-hydroxy-4-phenylbutyl]amino]-2-hydroxy-1-(phenylmethyl)-propyl]carbamic acid, 1,1-dimethylethyl ester] | 41 | – |
| CC(C)(C)OC(=O)N[C@@H](Cc1ccccc1)[C@H](O)CNC[C@@H](O)[C@H](Cc1ccccc1)NC(=O)OC1c2ccccc2CC1O (stereo partly drawn) [Compound 215, [1S-(1R*,2S*)(trans)]-[Iminobis[2-hydroxy-1-(phenylmethyl)-3,1-propanediyl)]biscarbamic acid, 1,1-dimethylethyl 2,3-dihydro-2-hydroxy-1H-inden-1-yl ester] | – | 66 |
| COC(=O)N[C@@H](C(=O)N[C@@H](Cc1ccccc1)[C@H](O)CNC[C@@H](O)[C@H](Cc1ccccc1)NC(=O)OC(C)(C)C)C(C)(C)C (relative stereo) [Compound 340, [1S*,2R*(2R*,3S*)]-N-[3-[[3-[[(1,1-Dimethylethoxy)carbonyl]amino]-2-hydroxy-4-phenylbutyl]amino]-2-hydroxy-1-(phenylmethyl)propyl]-N^2-(2-methoxycarbonyl)-3-methyl-D-valinamide] | 56 | – |
| CC(C)(C)OC(=O)N[C@@H](Cc1ccccc1)[C@H](O)CNC[C@@H](O)[C@H](Cc1ccccc1)NC(=O)C1c2ccccc2CC1O (stereo partly drawn) [Compound 237, [1S-[1R*,2S*[2S*,3R*(trans)]]]-[3-[[3-[[(2,3-Dihydro-2-hydroxy-1H-inden-1-yl)carbonyl]amino]-2-hydroxy-4-phenylbutyl]amino]-2-hydroxy-1-(phenylmethyl)propyl]carbamic acid, 1,1-dimethylethyl ester] | 54 | – |
| CN(C(=O)NC(C)(C)C)[C@@H](Cc1ccccc1)[C@H](O)CNC[C@@H](O)[C@H](Cc1ccccc1)NC(=O)OC(C)(C)C [Compound 136, [1S-[1R*,2S*(2S*,3R*)]]-[3-[[3-[[[(1,1-Dimethylethyl)amino]carbonyl]methylamino]-2-hydroxy-4-phenylbutyl]amino]-2-hydroxy-1-(phenylmethyl))propyl]carbamic acid, 1,1-dimethylethyl ester] | 73 | – |
| CC(C)(C)OC(=O)N[C@@H](Cc1ccccc1)[C@H](O)CNC[C@@H](O)[C@H](Cc1ccccc1)NC(=O)C1NC(=O)OC1(C)C (single isomer, unassigned; isomer a) [Compound 239, [1S-[1R*,2S*(2S*,3R*)]]-[3-[[3-[[(5,5-Dimethyl-2-oxo-4-oxazolidinyl)carbonyl]amino]-2-hydroxy-4-phenylbutyl]amino]-2-hydroxy-1-(phenylmethyl)propyl]carbamic acid, 1,1-dimethylethyl ester, isomer A] | – | 37 |
| CC(C)(C)OC(=O)N[C@@H](Cc1ccccc1)[C@H](O)CNC[C@@H](O)[C@H](Cc1ccccc1)NC(=O)C1(O)CCCCC1(C)C (single isomer, unassigned; isomer b) [Compound 362, [1S-[1R*,2S*(2S*,3R*)]]-[3-[[3-[[2,2-Dimethyl-1-hydroxycyclohexyl)carbonyl]amino]-2-hydroxy-4-phenylbutyl]amino]-2-hydroxy-1-(phenylmethyl) propyl]carbamic acid, 1,1-dimethylethyl ester, isomer B] | – | 98 |

Reference: patent publication US5760036A, “Aminediol protease inhibitors” (E. R. Squibb & Sons, Inc., priority 1995, dated 1998)
